Experiments:
[1] = molecular target: cathepsin B (Tb CatB) (Trypanosoma brucei, UniProt Q6R7Z5); test: Enzymatic inhibition of recombinant Tb CatB, fluorogenic Z-Phe-Arg-AMC substrate; assay type: biochemical; details: for % inhibition (DMSO) TbCat B: concentration not given; for activity against cathepsin B (in words): summary statement, said to indicate selectivity
Experimental: (§1) Inhibition of cysteine-proteases cruzain, rhodesain, cathepsin B (Tb CatB) and falcipain (FP2) was assessed by quantification of the resulting fluorescence emission of the proteolytic breakdown of synthetic compound Z-Phe-Arg-AMC (Bachem). Inhibitors Ia or Ib were used at concentrations ranging form 10 nM to 10.000 nM (from 500 nM to 10000 nM for Tb CatB); thus, serial dilutions in DMSO were prepared with the minimal concentration of inhibitor Ia or Ib used for calculations and at least 10 times higher than that of the enzyme. These experiments were performed by distributing inhibitor Ia or Ib in 96 wells, fluorescence was recorded on a Flex Station fluorimeter (Molecular Devices), 355 nm excitation and 460 nm emission at 25° C., distributing 100 μl of substrate using a multichannel pipette at a similar volume of the inhibitor enzyme preincubated at 25° C. for 5 minutes. In each series of experiments, the enzyme with DMSO and the enzyme in the presence of the known irreversible inhibitor K11777 (N methyl piperazine-Phe-HPhe-(CH═CHSO2 Ph)), Arris Pharmaceuticals Inc., South San Francisco, Calif.) were used as controls.
(§2) Enzyme inhibition data were similarly determined: recombinant cruzain at 4 nM with 5 μM of Z-Phe-Arg-AMC (Km=1 μM) in buffer A (100 mM of sodium acetate, pH 5.5 with 5 mM of DTT and 0.001% Triton-X 100 (Sigma)); recombinant rhodesain at 4 nM of enzyme and 5 μM Z-Phe-Arg-AMC (Km=1 μM) in buffer A; recombinant Tb CatB at 40 nM of enzyme and 5 μM of Z-Phe-Arg-AMC (Km=60 μM) in buffer A and recombinant FP2 at 4 nM with 5 μM of Z-Phe-Arg-AMC (Km=1 μM) in buffer A. IC50 values were determined by direct reading of the semi-log plot of reaction speed versus inhibitor concentration.

[2] = molecular target: rhodesain (Trypanosoma brucei rhodesiense, UniProt Q95PM0); test: Enzymatic inhibition of recombinant rhodesain, fluorogenic Z-Phe-Arg-AMC substrate; assay type: biochemical, T. Brucei; details: for % inhibition (DMSO) Rhodesain: concentration not given; for activity against rhodesain (in words): summary statement
Chain of rhodesain (Q95PM0 entry or part of it): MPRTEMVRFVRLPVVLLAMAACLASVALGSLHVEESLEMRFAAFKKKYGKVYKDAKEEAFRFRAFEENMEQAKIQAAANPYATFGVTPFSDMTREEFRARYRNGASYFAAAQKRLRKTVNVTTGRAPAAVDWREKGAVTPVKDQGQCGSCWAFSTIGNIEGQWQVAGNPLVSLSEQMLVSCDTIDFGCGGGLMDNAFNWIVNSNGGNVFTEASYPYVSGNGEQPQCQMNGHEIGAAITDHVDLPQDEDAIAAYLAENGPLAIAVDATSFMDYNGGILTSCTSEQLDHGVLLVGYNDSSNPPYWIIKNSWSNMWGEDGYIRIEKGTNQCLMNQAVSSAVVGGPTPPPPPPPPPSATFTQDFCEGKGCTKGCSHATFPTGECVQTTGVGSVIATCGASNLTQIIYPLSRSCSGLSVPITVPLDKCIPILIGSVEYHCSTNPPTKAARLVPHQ
Experimental: as §1, §2

[3] = molecular target: falcipain (FP2) (Plasmodium falciparum, UniProt Q8I6U4); test: Enzymatic inhibition of recombinant falcipain (FP2), fluorogenic Z-Phe-Arg-AMC substrate; assay type: biochemical
Chain of falcipain (FP2) (Q8I6U4 244-484): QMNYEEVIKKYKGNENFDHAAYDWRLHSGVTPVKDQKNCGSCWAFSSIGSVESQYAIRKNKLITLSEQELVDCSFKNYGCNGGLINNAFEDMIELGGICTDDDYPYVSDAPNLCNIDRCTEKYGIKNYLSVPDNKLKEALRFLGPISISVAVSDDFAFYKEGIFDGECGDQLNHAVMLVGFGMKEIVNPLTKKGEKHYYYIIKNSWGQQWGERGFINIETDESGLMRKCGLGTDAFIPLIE
Experimental: as §1, with “controls. […]” for “controls.”

[4] = tested on: Trypanosoma brucei brucei (Tbb); test: Inhibition test on Trypanosoma brucei brucei by ATP-bioluminescence; assay type: cell-based; details: concentration not given
Experimental: Inhibition tests on Trypanosoma brucei brucei were performed by ATP-bioluminescence (Z. B. Mackey et al, Chem. Biol. Drug Des. 2006, 67, pp. 355-363).

[5] = molecular target: cruzain (Trypanosoma cruzi, UniProt P25779); test: biochemical; assay type: biochemical; details: for % inhibition (DMSO) Cruzain: concentration not given; for activity against cruzain (in words): summary statement
Chain of cruzain (P25779 123-467): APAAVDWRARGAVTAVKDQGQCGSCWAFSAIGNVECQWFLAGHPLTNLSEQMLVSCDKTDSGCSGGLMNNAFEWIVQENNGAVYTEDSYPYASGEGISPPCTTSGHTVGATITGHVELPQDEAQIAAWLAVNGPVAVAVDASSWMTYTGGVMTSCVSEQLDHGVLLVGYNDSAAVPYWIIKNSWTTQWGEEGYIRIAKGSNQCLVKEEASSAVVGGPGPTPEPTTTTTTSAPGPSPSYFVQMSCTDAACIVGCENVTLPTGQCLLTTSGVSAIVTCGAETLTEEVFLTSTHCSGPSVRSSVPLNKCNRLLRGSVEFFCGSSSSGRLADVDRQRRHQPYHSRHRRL

Chain of cathepsin B (Tb CatB) (Q6R7Z5 entry or part of it): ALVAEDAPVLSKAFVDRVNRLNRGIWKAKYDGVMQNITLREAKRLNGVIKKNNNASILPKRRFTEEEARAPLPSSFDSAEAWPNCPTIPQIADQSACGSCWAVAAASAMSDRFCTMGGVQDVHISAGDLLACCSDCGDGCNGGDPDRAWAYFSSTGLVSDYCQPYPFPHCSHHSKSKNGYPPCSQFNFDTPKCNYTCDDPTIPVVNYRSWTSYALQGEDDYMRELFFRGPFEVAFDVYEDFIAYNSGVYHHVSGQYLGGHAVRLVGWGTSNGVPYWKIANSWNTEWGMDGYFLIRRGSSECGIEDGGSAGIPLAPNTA

Structure (SMILES) | IC50 [1] [nM] | % inhibition (DMSO) TbCat B [1] [%] | activity against cathepsin B (in words) [1] | IC50 [2] [nM] | % inhibition (DMSO) Rhodesain [2] [%] | activity against rhodesain (in words) [2] | IC50 [3] [nM] | % inhibition (DMSO) Tbb [4] [%] | IC50 [5] [nM] | % inhibition (DMSO) Cruzain [5] [%] | activity against cruzain (in words) [5]
CCOC(=O)[C@H]1O[C@@H]1C(=O)[C@H](CCc1ccccc1)NC(=O)[C@H](Cc1ccccc1)NC(=O)OCc1ccccc1 [Compound Ia.1, Ethyl (2S,3S)-3-[(2S)-2-((2S)-2-benzyloxycarbonylamino-3-phenylpropionylamino)-4-phenylbutyryl]oxirane-2-carboxylate] | > 1000 | 51 | not against cathepsin B | 3.5 | 98 | very active | 71 | 42 | 20 | 93 | very active
CCOC(=O)[C@@H]1O[C@H]1C(=O)[C@H](CCc1ccccc1)NC(=O)[C@H](Cc1ccccc1)NC(=O)OCc1ccccc1 [Compound Ib.1, Ethyl (2R,3R)-3-[(2S)-2-((2S)-2-benzyloxycarbonylamino-3-phenylpropionylamino)-4-phenylbutyryl]oxirane-2-carboxylate] | 400 | 47 | not against cathepsin B | 30 | 80 | very active | 44 | −2 | 50 | 55 | very active
